{"source": "patent US9169247B2", "about": "“Tetrahydro-beta-carboline derivatives, synthesis and use thereof” (Southern Research Institute, priority 2009, dated 2015)", "type_in_all_cases": "cell-based", "key": {"786-0": {"system": "786-0", "test": "Growth assay (Cell Titer Glo)", "settings": "Homo sapiens; 786-0, renal", "outline": "(§1)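 Cells in RPMI 1640 with 5% FBS were seeded at 5,000 cells/well and allowed 18-24 h before compound addition at 0.1% final DMSO. Viability was read by luminescence 72 h after treatment, and IC50 values came from four-parameter logistic fits of dose-response curves.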"}, "CCFR-CEM": {"system": "CCFR-CEM", "test": "Growth assay (Cell Titer Glo)", "settings": "Homo sapiens, hematopoietic", "outline": "as §1"}, "HCT-15": {"system": "HCT-15", "test": "Growth assay (Cell Titer Glo)", "settings": "Homo sapiens; HCT-15, colon", "outline": "as §1"}, "HOP-62": {"system": "HOP-62", "test": "Growth assay (Cell Titer Glo)", "settings": "Homo sapiens; HOP-62, lung", "outline": "as §1"}, "M14": {"system": "M14", "test": "Growth assay (Cell Titer Glo)", "settings": "Homo sapiens; M14, melanoma", "outline": "as §1"}, "NCI-H460": {"system": "NCI-H460", "test": "Growth assay (Cell Titer Glo)", "settings": "Homo sapiens; NCI-H460, lung", "outline": "as §1"}, "SR": {"system": "SR", "test": "Growth assay (Cell Titer Glo)", "settings": "Homo sapiens, hematopoietic", "outline": "as §1"}, "TK-10": {"system": "TK-10", "test": "Growth assay (Cell Titer Glo)", "settings": "Homo sapiens; TK-10, renal", "outline": "as §1"}, "U251": {"system": "U251", "test": "Growth assay (Cell Titer Glo)", "settings": "Homo sapiens, U-251; U251, CNS", "outline": "as §1"}, "UACC-257": {"system": "UACC-257", "test": "Growth assay (Cell Titer Glo)", "settings": "Homo sapiens; UACC-257, melanoma", "outline": "as §1"}, "CACO-2": {"system": "CACO-2", "test": "Growth assay (Cell Titer Glo)", "settings": "Homo sapiens; CACO-2 colon; 72 h", "experimental": "(§2) Compounds 2a-h were tested for tumor cell growth inhibitory activity using the human breast MDA-MB-231 and ZR75-1 tumor cell lines and the colon CACO-2, SW-1116, and HT-29 tumor cell lines.\n(§3) All human tumor cell lines were obtained from ATCC and grown under standard cell culture conditions at 37° C. in a humidified atmosphere with 5% CO2. Cells were grown in RPMI 1640 supplemented with 5% fetal bovine serum 2 mM glutamine, 100 units/ml penicillin, 100 units/ml streptomycin, and 0.25 μg/ml amphotericin. Cells were harvested at 70 to 90% confluence with trypsin/EDTA and used immediately Cell count and viability was determined by Trypan blue staining followed by hemocytometry. Only cultures displaying >95% cell viability were used for experiments. HMEC were grown according to the specifications from the supplier (Lonzo).\n(§4) Tissue culture microtiter 96-well plates were seeded with cells at a density of 5,000 cells/well. The plates were incubated for 18-24 hours prior to any treatment. All test compounds were solubilized in 100% DMSO and diluted with media to obtain a final DMSO concentration of 0.1%. Cell viability was measured 72 hours after treatment by the Cell Titer Glo Assay (Promega), which is a luminescent assay that is an indicator of live cells as a function of metabolic activity and ATP content. The assay was performed according to manufacturer's specifications. Luminescence was measured by a Perkin Elmer Victor® multi-label plate reader.^6\n(§5) Dose response curves were analyzed using Prism™ 4 software (GraphPad) to calculate IC50 values using a four parameter logistic equation."}, "SW1116": {"system": "SW1116", "test": "Growth assay (Cell Titer Glo)", "settings": "Homo sapiens, SW 1116; SW1116 colon; 72 h", "experimental": "as §2, §3, §4, §5"}, "ZR75-1": {"system": "ZR75-1", "test": "Growth assay (Cell Titer Glo)", "settings": "Homo sapiens, ZR-75-1; ZR75-1 breast; 72 h", "experimental": "as §2, §3, §4, §5"}, "[1]": {"system": "normal human mammary epithelial cells (HMEC)", "test": "Cytotoxicity to normal cells (growth assay)", "settings": "up to a concentration of 10 μM", "experimental": "as §3, §4"}, "[2]": {"system": "human MDA-MB-231 breast tumor cells", "test": "cGMP assay (intracellular cGMP, immunoassay)", "settings": "treated for 30 minutes, FIG. 1", "experimental": "FIG. 1A illustrates the induction of intracellular cGMP levels in cultured human MDA-MB-231 breast tumor cells treated for 30 minutes with compound 2f. […] The + indicates the effects of a positive control, sulindac sulfide tested at 100 μM. The cells were treated for 30 minutes prior to measuring intracellular cGMP levels by immunoassay. The * indicates statistical significance with p<0.05.\nCells were seeded at a density of 1×10^6 cells per 10 cm tissue culture dish, incubated for 48 hours, and treated with the specified compound or vehicle control. After 30 minutes of treatment, cells were lysed and assayed for cGMP content using the cGMP Direct Biotrak EIA kit (GE Biosciences). The assay was performed according to the manufacturer's specifications. Optical density was measured at 630 nm using a Synergy4 (BioTek) plate reader."}, "A498": {"system": "A498", "test": "Growth assay (Cell Titer Glo)", "settings": "Homo sapiens; A498, renal", "outline": "as §1"}, "A549": {"system": "A549", "test": "Growth assay (Cell Titer Glo)", "settings": "Homo sapiens; A549, lung", "outline": "as §1"}, "BT-549": {"system": "BT-549", "test": "Growth assay (Cell Titer Glo)", "settings": "Homo sapiens; BT-549, breast", "outline": "as §1"}, "COLO205": {"system": "COLO205", "test": "Growth assay (Cell Titer Glo)", "settings": "Homo sapiens, COLO 205; COLO205, colon", "outline": "as §1"}, "HCC-2998": {"system": "HCC-2998", "test": "Growth assay (Cell Titer Glo)", "settings": "Homo sapiens; HCC-2998, colon", "outline": "as §1"}, "HOP-92": {"system": "HOP-92", "test": "Growth assay (Cell Titer Glo)", "settings": "Homo sapiens; HOP-92, lung", "outline": "as §1"}, "Hs578T": {"system": "Hs578T", "test": "Growth assay (Cell Titer Glo)", "settings": "Homo sapiens, Hs-578T, breast", "outline": "as §1"}, "K562": {"system": "K562", "test": "Growth assay (Cell Titer Glo)", "settings": "Homo sapiens; K562, hematopoietic", "outline": "as §1"}, "MDA-MB-435": {"system": "MDA-MB-435", "test": "Growth assay (Cell Titer Glo)", "settings": "Homo sapiens; MDA-MB-435, melanoma", "outline": "as §1"}, "MDA-MB-468": {"system": "MDA-MB-468", "test": "Growth assay (Cell Titer Glo)", "settings": "Homo sapiens; MDA-MB-468, breast", "outline": "as §1"}, "NCI-H226": {"system": "NCI-H226", "test": "Growth assay (Cell Titer Glo)", "settings": "Homo sapiens; NCI-H226, lung", "outline": "as §1"}, "NCI-H522": {"system": "NCI-H522", "test": "Growth assay (Cell Titer Glo)", "settings": "Homo sapiens; NCI-H522, lung", "outline": "as §1"}, "OVCAR-3": {"system": "OVCAR-3", "test": "Growth assay (Cell Titer Glo)", "settings": "Homo sapiens; OVCAR-3, ovarian", "outline": "as §1"}, "SF-295": {"system": "SF-295", "test": "Growth assay (Cell Titer Glo)", "settings": "Homo sapiens; SF-295, CNS", "outline": "as §1"}, "SK-MEL-2": {"system": "SK-MEL-2", "test": "Growth assay (Cell Titer Glo)", "settings": "Homo sapiens; SK-MEL-2, melanoma", "outline": "as §1"}, "SK-MEL-5": {"system": "SK-MEL-5", "test": "Growth assay (Cell Titer Glo)", "settings": "Homo sapiens; SK-MEL-5, melanoma", "outline": "as §1"}}, "note": "“Also recorded” adds a separate entry of the source."}
{"smiles": "COC(=O)[C@H]1Cc2c([nH]c3ccccc23)[C@H](c2cc(OC)ccc2OC)N1C(=O)CCl", "note": "[Compound 2f, Methyl (1S,3R)-1-(2,5-dimethoxyphenyl)-2-(2-chloroacetyl)-2,3,4,9-tetrahydro-1H-β-carboline-3-carboxylate]", "values": [{"measurement": "IC50", "setting": "786-0", "result": 32, "unit": "nM"}, {"measurement": "IC50", "setting": "CCFR-CEM", "result": "< 6", "unit": "nM"}, {"measurement": "IC50", "setting": "HCT-15", "result": "> 10000", "unit": "nM"}, {"measurement": "IC50", "setting": "HOP-62", "result": 20, "unit": "nM"}, {"measurement": "IC50", "setting": "M14", "result": 485, "unit": "nM"}, {"measurement": "IC50", "setting": "NCI-H460", "result": "> 10000", "unit": "nM"}, {"measurement": "IC50", "setting": "SR", "result": "< 7", "unit": "nM"}, {"measurement": "IC50", "setting": "TK-10", "result": 78, "unit": "nM"}, {"measurement": "IC50", "setting": "U251", "result": 259, "unit": "nM"}, {"measurement": "IC50", "setting": "UACC-257", "result": 5320, "unit": "nM"}, {"measurement": "IC50", "setting": "CACO-2", "result": 0.01, "unit": "µM"}, {"measurement": "IC50", "setting": "SW1116", "result": 4.4, "unit": "µM"}, {"measurement": "IC50", "setting": "ZR75-1", "result": 1.2, "unit": "µM"}, {"measurement": "cytotoxicity to normal human mammary epithelial cells (HMEC)", "setting": "[1]", "result": "insensitive; also recorded: no cytotoxicity"}, {"measurement": "intracellular cGMP levels", "setting": "[2]", "result": "induction; also recorded: increase"}]}
{"smiles": "COC(=O)[C@H]1Cc2c([nH]c3ccccc23)[C@H](c2ccc(Cl)cc2Cl)N1C(=O)CCl", "note": "[Compound 2j, (1S,3R) Methyl 1-(2,4-dichlorophenyl)-2-(2-chloroacetyl)-2,3,4,9-tetrahydro-1H-β-carboline-3-carboxylate]", "values": [{"measurement": "IC50", "setting": "786-0", "result": 20, "unit": "nM"}, {"measurement": "IC50", "setting": "A498", "result": 96, "unit": "nM"}, {"measurement": "IC50", "setting": "A549", "result": "> 3000", "unit": "nM"}, {"measurement": "IC50", "setting": "BT-549", "result": 760, "unit": "nM"}, {"measurement": "IC50", "setting": "CCFR-CEM", "result": 10, "unit": "nM"}, {"measurement": "IC50", "setting": "COLO205", "result": 1440, "unit": "nM"}, {"measurement": "IC50", "setting": "HCC-2998", "result": 2260, "unit": "nM"}, {"measurement": "IC50", "setting": "HCT-15", "result": "> 3000", "unit": "nM"}, {"measurement": "IC50", "setting": "HOP-62", "result": 200, "unit": "nM"}, {"measurement": "IC50", "setting": "HOP-92", "result": 20, "unit": "nM"}, {"measurement": "IC50", "setting": "Hs578T", "result": 220, "unit": "nM"}, {"measurement": "IC50", "setting": "K562", "result": 1250, "unit": "nM"}, {"measurement": "IC50", "setting": "M14", "result": 2260, "unit": "nM"}, {"measurement": "IC50", "setting": "MDA-MB-435", "result": 640, "unit": "nM"}, {"measurement": "IC50", "setting": "MDA-MB-468", "result": 130, "unit": "nM"}, {"measurement": "IC50", "setting": "NCI-H226", "result": 1410, "unit": "nM"}, {"measurement": "IC50", "setting": "NCI-H460", "result": "< 1", "unit": "nM"}, {"measurement": "IC50", "setting": "NCI-H522", "result": 16, "unit": "nM"}, {"measurement": "IC50", "setting": "OVCAR-3", "result": 130, "unit": "nM"}, {"measurement": "IC50", "setting": "SF-295", "result": 70, "unit": "nM"}, {"measurement": "IC50", "setting": "SK-MEL-2", "result": 920, "unit": "nM"}, {"measurement": "IC50", "setting": "SK-MEL-5", "result": "> 3000", "unit": "nM"}, {"measurement": "IC50", "setting": "SR", "result": 8, "unit": "nM"}, {"measurement": "IC50", "setting": "TK-10", "result": 200, "unit": "nM"}, {"measurement": "IC50", "setting": "U251", "result": 1880, "unit": "nM"}, {"measurement": "IC50", "setting": "UACC-257", "result": "> 3000", "unit": "nM"}]}
